Results on six substances are retold here after PMC12830989, “Subcellular glycan-mannose receptor binding kinetics correlate with myeloid cell function” (Nature Communications, 2025).

In one experiment the test system is MR^−/− BMDC. In words: Glyco-PAINT-APP single-molecule glycan binding on live MR-/- BMDC. The arrangement: species or system mouse. The settings on record: Suppl. Fig 9, glycan SLP, median. As for the experimental part: Single molecule imaging was performed on a Nikon Ti2 N-STORM system equipped with TIRF module, Z piezo element, perfect focus system for axial drift correction and an OkoLab incubator with temperature and CO2 controller (37 °C and 5% CO2) for live-cell imaging. Recordings were acquired using the 647 nm excitation laser (160 mW, 1.9 kW/cm^2). Upon laser excitation, fluorescence was collected by a 100x 1.49 NA oil-immersion objective, passed through a quad-band dichroic mirror (97335 Nikon), and detected by a Hamamatsu ORCA Flash 4.0 CMOS camera with 160 nm pixel size. The signal was collected using the following settings: 512 × 512 pixel region, no binning, pixel depth 16-bit, exposure time 50 ms, live-cell observation and 2D-STORM (lens out), zoom 1x, lens x0.4, and for live-cell observation at 37 °C, the correction collar was set to position 8160.
5 x 10^4 CHO-MR or 1 x 10^5 WT, MR^−/− BMDC or BMDM were seeded in 8-well glass-bottomed microscopy slides (Ibidi, 80827) in complete medium. After equilibration in the microscope incubator, fluorescent glycan was added at 5 nM for CHO-MR and 10 nM for BMDC or BMDM experiments. Then, cells were brought into focus using brightfield illumination and 2000 frames (at 50 ms intervals) were recorded within a single field-of-view at 40–60% of maximum 647 nm laser power using TIRF illumination. For indicated experiments, Cytochalasin D (Focus Biomolecules) was added to a final concentration of 10 µM for 30 min prior to acquisition.
Processing of recordings using Glyco-PAINT-APP was performed as described in a step-by-step procedure in the Supplementary Software Manual in the Supplementary Information and accompanying Supplementary Videos 1 and 2. For the TrackMate processing, a batch file (Experiment Info.csv) containing the experiment metadata and tracking parameters was created. Threshold values were set to 5, 10 or 15 such that no more than 1.500.000 spots were detected. Recordings were then processed in TrackMate using the ‘Run TrackMate Batch’ plugin provided by the Glyco-PAINT-APP. Through this plugin, spot detection and tracking by TrackMate[70] was performed as indicated in the batch file using the Simple LAP tracker algorithm with a maximum frame gap of 3, a max linking distance of 0.6 μm and a gap closing max distance of 1.2 μm. Tracks with only two spots were discarded. For the parameter sensitivity analysis, each tracking or spot detection was varied as indicated, whilst the others were kept at aforementioned values (Basis scenario).
With the Glyco-PAINT-APP utility ‘Generate Squares’, a grid of squares was overlaid, and kinetic properties for each square were calculated. Default parameters for grid processing are (deviations are mentioned in figure captions): Nr of Squares in row 20, Minimum Tracks to Calculate Tau 20, Min allowable R Squared 0.1, Min Required Density Ratio 2, Maximum Allowable Variability 10 and Neighbour Mode Free.
For every recording, a background track count was calculated by averaging the track count of the 40 (10% of the total number of squares) least dense squares. Only squares for which the track count exceeded the Min Required Density Ratio of 2 were considered (and the remaining ignored as background). For each square, the variability was calculated and only squares for which the variability was less than the Maximum Allowable Variability of 10 were considered. For squares meeting both the Minimum Required Density Ratio and Maximum Allowable Variability criteria, and containing at least the Minimum Tracks to Calculate Tau kinetic parameters, including kon, koff and MSD were calculated as in Riera et al.[10], or copied from the TrackMate Tracks table output (for velocity, displacement, and track duration).

The next experiment concerns WT BMDC (CD11c+). In words: Glycan SLP uptake by flow cytometry (phagocytic index), WT BMDC. The settings on record: for phagocytic index: Fig 4d source data, BMDC incubated 1 h with probe, CD11c+ cells, per experiment, two technical replicates. Type of experiment: cell-based, mouse. The protocol: 2.5 x 10^5 WT, MR^−/− BMDC or BMDM were seeded after treatment with polarizing stimulus as described below in a 96 well v-bottom plate (Sarstedt, 82.1583001). The next day, Glycan SLP probes were added to the cells at 250 nM and incubated for 1 h at 37 °C. Active uptake was halted by addition of ice-cold PBS and washed twice with PBS + 2% FCS + 2 mM EDTA (300 rcf, 5 min., rt). Cells were stained with a selection of the following stains and antibodies: Zombie Yellow (Biolegend, 423103, 1:500), TruStain FcX (Biolegend, cat no 101319, 1:100), CD11c - eFluor450 (clone: N418, eBioscience, cat no 48-0114-82, dilution 1:200), CD206-AF488 or AF647 (clone: MR5D3, Biorad, MCA2235A488T, 1:20), CD86-PerCP (Biolegend, cat no 105025, clone GL-1, 1:200), F4/80-APC-Cy7 (Biolegend, cat no 123117, clone BM8, dilution 1:400), MHC-II-AF488 (Biolegend, cat no 107615, clone M5/114.15.2, dilution 1:1000) for 30 min. on ice. Then cells were washed twice with PBS + 2% FCS + 2 mM EDTA and acquired on Guava EasyCyte 12HT. For BMDM uptake and characterization, an identical procedure was followed but acquisition was performed on Sony ID7000 spectral flow cytometer. Analysis was performed using FlowJo v8. Phagocytic index (PI) was calculated according to equation 1. Statistical analysis and plotting were performed using GraphPad Prism V10.1 PI=%sCy5^+cellsxMFIsCy5^+cells−%sCy5^−cellsxMFIsCy5^−cells
For orientation: A flow cytometer gives signals particle by particle.

Where “and” joins values, the source holds several entries; their conditions need not be identical. Equal values may be shown once. sCy5 = sulfo-Cy5

Regarding “Ac-Lys(Man)-Gly-Lys(Man)-TEG-Asp-Glu-Val-Ser-Gly-Leu-Glu-Gln-Leu-Glu-Ser-Ile-Ile-Asn-Phe-Glu-Lys-Leu-Ala-Ala-Ala-Ala-Ala-Lys(sCy5)-NH2 ({Ac-K(Man)-Gly-K(Man)-TEG}-DEVSGLEQLESIINFEKLAAAAAK(sCy5)-NH2) [2 Mono(2), bivalent monomannosylated OVA SLP with sulfo-Cy5]”, in the experiment with MR^−/− BMDC, the “koff−1” value came out at 151 ms and the kon stood at 2 evts μm−2 sec−1. Also, in the experiment on WT BMDC (CD11c+), the phagocytic index is 468.878 and 326.94 and 575.997 and 867.184 and 474 and -18.

For “Ac-Lys(Man)-Lys(Man)-Lys(Man)-Lys(Man)-Lys(Man)-Lys(Man)-TEG-Asp-Glu-Val-Ser-Gly-Leu-Glu-Gln-Leu-Glu-Ser-Ile-Ile-Asn-Phe-Glu-Lys-Leu-Ala-Ala-Ala-Ala-Ala-Lys(sCy5)-NH2 ({Ac-K(Man)-K(Man)-K(Man)-K(Man)-K(Man)-K(Man)-TEG}-DEVSGLEQLESIINFEKLAAAAAK(sCy5)-NH2) [6 Mono(3), hexavalent monomannosylated OVA SLP with sulfo-Cy5]”, in the experiment on MR^−/− BMDC, the “koff−1” value was found to be 180 ms and the kon was determined as 6.3 evts μm−2 sec−1. Moreover, the phagocytic index with WT BMDC (CD11c+) was 351.961 and 267.849 and 647.297 and 867.13 and 676 and 415.

Take “Ac-Lys(Man)-TEG-Asp-Glu-Val-Ser-Gly-Leu-Glu-Gln-Leu-Glu-Ser-Ile-Ile-Asn-Phe-Glu-Lys-Leu-Ala-Ala-Ala-Ala-Ala-Lys(sCy5)-NH2 ({Ac-K(Man)-TEG}-DEVSGLEQLESIINFEKLAAAAAK(sCy5)-NH2) [1 Mono(1), monovalent monomannosylated OVA SLP with sulfo-Cy5]”: in the experiment with MR^−/− BMDC, the “koff−1” value stood at 182 ms and the kon is 6.2 evts μm−2 sec−1. Further, the phagocytic index in the experiment on WT BMDC (CD11c+) is 18.2246 and 7.8718 and 19.8915 and 23.9776 and -43 and 24.

For “Ac-Lys(triMan)-Gly-Lys(triMan)-TEG-Asp-Glu-Val-Ser-Gly-Leu-Glu-Gln-Leu-Glu-Ser-Ile-Ile-Asn-Phe-Glu-Lys-Leu-Ala-Ala-Ala-Ala-Ala-Lys(sCy5)-NH2 (DEVSGLEQLESIINFEKLAAAAAK; two Lys(triMan), TEG, sulfo-Cy5, C-amide; printed: Asp-Glu-Val-Ser-Gly-Leu-Glu-Gln-Leu-Glu-Ser-Ile-Ile-Asn-Phe-Glu-Lys-Leu-Ala-Ala-Ala-Ala-Ala-Lys) [2 Tri(5), bivalent trimannosylated OVA SLP with sulfo-Cy5]”, in the experiment on MR^−/− BMDC, the “koff−1” value worked out at 141 ms and the kon amounted to 4.6 evts μm−2 sec−1. Further, the “uptake (phagocytic index) by BMDC” value in the experiment on WT BMDC (CD11c+) (1 h incubation, sCy5 signal by flow cytometry) was “most effectively taken up”. Moreover, the phagocytic index in the experiment with WT BMDC (CD11c+) is 739.67 and 711.569 and 1725.6 and 1909.99 and 2022 and 1371.

In the case of “Ac-Lys(triMan)-Lys(triMan)-Lys(triMan)-Lys(triMan)-Lys(triMan)-Lys(triMan)-TEG-Asp-Glu-Val-Ser-Gly-Leu-Glu-Gln-Leu-Glu-Ser-Ile-Ile-Asn-Phe-Glu-Lys-Leu-Ala-Ala-Ala-Ala-Ala-Lys(sCy5)-NH2 (DEVSGLEQLESIINFEKLAAAAAK; six Lys(triMan), TEG, sulfo-Cy5, C-amide; printed: Asp-Glu-Val-Ser-Gly-Leu-Glu-Gln-Leu-Glu-Ser-Ile-Ile-Asn-Phe-Glu-Lys-Leu-Ala-Ala-Ala-Ala-Ala-Lys) [6 Tri(6), hexavalent trimannosylated OVA SLP with sulfo-Cy5]”, in the experiment on MR^−/− BMDC, the “koff−1” value worked out at 115 ms and the kon came to 1.1 evts μm−2 sec−1. Also, the phagocytic index in the experiment with WT BMDC (CD11c+) is 418.118 and 415.333 and 1097.76 and 913.574 and 294 and 434.

As for “Ac-Lys(triMan)-TEG-Asp-Glu-Val-Ser-Gly-Leu-Glu-Gln-Leu-Glu-Ser-Ile-Ile-Asn-Phe-Glu-Lys-Leu-Ala-Ala-Ala-Ala-Ala-Lys(sCy5)-NH2 (DEVSGLEQLESIINFEKLAAAAAK; Ac-Lys(triMan)-TEG, sulfo-Cy5, C-amide; printed: Asp-Glu-Val-Ser-Gly-Leu-Glu-Gln-Leu-Glu-Ser-Ile-Ile-Asn-Phe-Glu-Lys-Leu-Ala-Ala-Ala-Ala-Ala-Lys) [1 Tri(4), monovalent trimannosylated OVA SLP with sulfo-Cy5]”, in the experiment with MR^−/− BMDC, the “koff−1” value is given as 160 ms and the kon is recorded as 6 evts μm−2 sec−1. The phagocytic index with WT BMDC (CD11c+) was 866.48 and 744.547 and 660.373 and 1168.46 and 1459 and 1224.
